Article PMC12814364 (Journal of the American Chemical Society, 2025)
“Also recorded” adds a separate entry of the source.

Target: HBHA110–199 (Mycobacterium tuberculosis, UniProt P9WIP9)
Experiment: ITC binding of HS hexadecasaccharides with HBHA110–199
[1] = Tris buffer pH 7.6, 25 °C, two trials, average ± standard deviation

HBHA110–199, sequence (P9WIP9 110-199): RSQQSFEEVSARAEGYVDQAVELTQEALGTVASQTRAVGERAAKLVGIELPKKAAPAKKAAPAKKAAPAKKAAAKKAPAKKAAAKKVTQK

CC(=O)N[C@H]1[C@@H](O[C@H]2[C@H](O)[C@@H](OS(=O)(=O)O)[C@H]3OC[C@@H]2O3)O[C@H](CO)[C@@H](O[C@@H]2O[C@@H](C(=O)O)[C@@H](O[C@H]3O[C@H](CO)[C@@H](O[C@@H]4O[C@@H](C(=O)O)[C@@H](O[C@H]5O[C@H](CO)[C@@H](O[C@@H]6O[C@@H](C(=O)O)[C@@H](O[C@H]7O[C@H](CO)[C@@H](O[C@@H]8O[C@@H](C(=O)O)[C@@H](O[C@H]9O[C@H](CO)[C@@H](O[C@@H]%10O[C@@H](C(=O)O)[C@@H](O[C@H]%11O[C@H](CO)[C@@H](O[C@@H]%12O[C@@H](C(=O)O)[C@@H](O[C@H]%13O[C@H](CO)[C@@H](O[C@@H]%14O[C@@H](C(=O)O)[C@@H](O[C@H]%15O[C@H](CO)[C@@H](O)[C@H](O)[C@H]%15NC(C)=O)[C@H](O)[C@H]%14OS(=O)(=O)O)[C@H](O)[C@H]%13NC(C)=O)[C@H](O)[C@H]%12OS(=O)(=O)O)[C@H](O)[C@H]%11NC(C)=O)[C@H](O)[C@H]%10OS(=O)(=O)O)[C@H](O)[C@H]9NC(C)=O)[C@H](O)[C@H]8OS(=O)(=O)O)[C@H](O)[C@H]7NC(C)=O)[C@H](O)[C@H]6OS(=O)(=O)O)[C@H](O)[C@H]5NC(C)=O)[C@H](O)[C@H]4OS(=O)(=O)O)[C@H](O)[C@H]3NC(C)=O)[C@H](O)[C@H]2OS(=O)(=O)O)[C@@H]1O [compound 26]
dissociation constant, KD [1]: no detectable binding; also recorded: no binding detected

O=C(O)[C@@H]1O[C@@H](O[C@H]2[C@H](O)[C@@H](NS(=O)(=O)O)[C@@H](O[C@H]3[C@H](O)[C@@H](OS(=O)(=O)O)[C@H]4OC[C@@H]3O4)O[C@@H]2CO)[C@H](OS(=O)(=O)O)[C@@H](O)[C@@H]1O[C@H]1O[C@H](CO)[C@@H](O[C@@H]2O[C@@H](C(=O)O)[C@@H](O[C@H]3O[C@H](CO)[C@@H](O[C@@H]4O[C@@H](C(=O)O)[C@@H](O[C@H]5O[C@H](CO)[C@@H](O[C@@H]6O[C@@H](C(=O)O)[C@@H](O[C@H]7O[C@H](CO)[C@@H](O[C@@H]8O[C@@H](C(=O)O)[C@@H](O[C@H]9O[C@H](CO)[C@@H](O[C@@H]%10O[C@@H](C(=O)O)[C@@H](O[C@H]%11O[C@H](CO)[C@@H](O[C@@H]%12O[C@@H](C(=O)O)[C@@H](O[C@H]%13O[C@H](CO)[C@@H](O)[C@H](O)[C@H]%13NS(=O)(=O)O)[C@H](O)[C@H]%12OS(=O)(=O)O)[C@H](O)[C@H]%11NS(=O)(=O)O)[C@H](O)[C@H]%10OS(=O)(=O)O)[C@H](O)[C@H]9NS(=O)(=O)O)[C@H](O)[C@H]8OS(=O)(=O)O)[C@H](O)[C@H]7NS(=O)(=O)O)[C@H](O)[C@H]6OS(=O)(=O)O)[C@H](O)[C@H]5NS(=O)(=O)O)[C@H](O)[C@H]4OS(=O)(=O)O)[C@H](O)[C@H]3NS(=O)(=O)O)[C@H](O)[C@H]2OS(=O)(=O)O)[C@H](O)[C@H]1NS(=O)(=O)O [compound 27]
dissociation constant, KD [1]: no detectable binding; also recorded: no binding detected

CC(=O)N[C@H]1[C@@H](O[C@H]2[C@H](O)[C@@H](O)[C@H]3OC[C@@H]2O3)O[C@H](COS(=O)(=O)O)[C@@H](O[C@@H]2O[C@@H](C(=O)O)[C@@H](O[C@H]3O[C@H](COS(=O)(=O)O)[C@@H](O[C@@H]4O[C@@H](C(=O)O)[C@@H](O[C@H]5O[C@H](COS(=O)(=O)O)[C@@H](O[C@@H]6O[C@@H](C(=O)O)[C@@H](O[C@H]7O[C@H](COS(=O)(=O)O)[C@@H](O[C@@H]8O[C@@H](C(=O)O)[C@@H](O[C@H]9O[C@H](COS(=O)(=O)O)[C@@H](O[C@@H]%10O[C@@H](C(=O)O)[C@@H](O[C@H]%11O[C@H](COS(=O)(=O)O)[C@@H](O[C@@H]%12O[C@@H](C(=O)O)[C@@H](O[C@H]%13O[C@H](COS(=O)(=O)O)[C@@H](O[C@@H]%14O[C@@H](C(=O)O)[C@@H](O[C@H]%15O[C@H](COS(=O)(=O)O)[C@@H](O)[C@H](O)[C@H]%15NC(C)=O)[C@H](O)[C@H]%14O)[C@H](O)[C@H]%13NC(C)=O)[C@H](O)[C@H]%12O)[C@H](O)[C@H]%11NC(C)=O)[C@H](O)[C@H]%10O)[C@H](O)[C@H]9NC(C)=O)[C@H](O)[C@H]8O)[C@H](O)[C@H]7NC(C)=O)[C@H](O)[C@H]6O)[C@H](O)[C@H]5NC(C)=O)[C@H](O)[C@H]4O)[C@H](O)[C@H]3NC(C)=O)[C@H](O)[C@H]2O)[C@@H]1O [compound 31]
dissociation constant, KD [1]: no detectable binding; also recorded: no binding detected

O=C(O)[C@@H]1O[C@@H](O[C@H]2[C@H](O)[C@@H](NS(=O)(=O)O)[C@@H](O[C@H]3[C@H](O)[C@@H](O)[C@H]4OC[C@@H]3O4)O[C@@H]2COS(=O)(=O)O)[C@H](O)[C@@H](O)[C@@H]1O[C@H]1O[C@H](COS(=O)(=O)O)[C@@H](O[C@@H]2O[C@@H](C(=O)O)[C@@H](O[C@H]3O[C@H](COS(=O)(=O)O)[C@@H](O[C@@H]4O[C@@H](C(=O)O)[C@@H](O[C@H]5O[C@H](COS(=O)(=O)O)[C@@H](O[C@@H]6O[C@@H](C(=O)O)[C@@H](O[C@H]7O[C@H](COS(=O)(=O)O)[C@@H](O[C@@H]8O[C@@H](C(=O)O)[C@@H](O[C@H]9O[C@H](COS(=O)(=O)O)[C@@H](O[C@@H]%10O[C@@H](C(=O)O)[C@@H](O[C@H]%11O[C@H](COS(=O)(=O)O)[C@@H](O[C@@H]%12O[C@@H](C(=O)O)[C@@H](O[C@H]%13O[C@H](COS(=O)(=O)O)[C@@H](O)[C@H](O)[C@H]%13NS(=O)(=O)O)[C@H](O)[C@H]%12O)[C@H](O)[C@H]%11NS(=O)(=O)O)[C@H](O)[C@H]%10O)[C@H](O)[C@H]9NS(=O)(=O)O)[C@H](O)[C@H]8O)[C@H](O)[C@H]7NS(=O)(=O)O)[C@H](O)[C@H]6O)[C@H](O)[C@H]5NS(=O)(=O)O)[C@H](O)[C@H]4O)[C@H](O)[C@H]3NS(=O)(=O)O)[C@H](O)[C@H]2O)[C@H](O)[C@H]1NS(=O)(=O)O [compound 32]
n (sugar-to-protein binding ratio) (25 °C, Tris buffer pH 7.6): 0.30 ± 0.01
ΔG (25 °C, Tris buffer pH 7.6): –7.69 ± 0.08 kcal/mol
ΔH (25 °C, Tris buffer pH 7.6): 11.50 ± 0.28 kcal/mol
–TΔS (25 °C, Tris buffer pH 7.6): –19.15 ± 0.21 kcal/mol
Kd (Tris buffer pH 7.6, 25 °C, two trials, average ± standard deviation, read-out: dissociation constant, KD): 2360 ± 300 nM
